Values of other authors, collected in US20260306680A1, “RADIOLABELED COMPOUNDS TARGETING THE PROSTATE-SPECIFIC MEMBRANE ANTIGEN” (PROVINCIAL HEALTH SERVICES AUTHORITY, priority 2022, published 2026).

Test system: glutamate carboxypeptidase II
Settings: cited from earlier work

O=C(O)CC[C@H](NC(=O)N[C@@H](CCCCNC(=O)c1ccc(F)nc1)C(=O)O)C(=O)O [^18F-DCFPyL]
liver uptake (reduces sensitivity for detecting metastatic lesions in liver): high

O=C(O)CC[C@H](NC(=O)N[C@@H](CCCCNC(=O)[C@H](Cc1ccc2ccccc2c1)NC(=O)c1ccc(CNC(=O)[C@H](CCC(=O)O)NC(=O)[C@H](CCC(=O)O)NC(=O)c2ccc(F)nc2)cc1)C(=O)O)C(=O)O [^18F-PSMA-1007]
nonspecific uptake level in most normal tissues (compared to ^18F-DCFPyL): even higher
